pIC50: −log10 of the molar value. Read-outs that look alike come from different tables or passages of the source.
What was measured:
[1] = molecular target: Beta Secretase enzyme (BACE) (Homo sapiens, UniProt P56817); assay: In vitro enzymatic BACE FRET (fluorescence resonance energy transfer) assay; type: biochemical; conditions: average IC50, enzyme assay; read-out: BACE 1 FRET assay
How it was run: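 Run in 0.05 M acetate pH 4.2 with 10% DMSO final and 100 uM genapol; started by adding 50 nM FRET peptide substrate (fluorophore and quencher flanking the cleavage site), incubated one hour, then stopped with Tris to neutral pH before reading fluorescence.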

[2] = test system: Aβ40 in conditioned medium of cells stably expressing Amyloid Precursor Protein (APP); assay: In vitro BACE cell-based assay (Aβ40 in conditioned medium, sandwich ELISA); conditions: read-out: HEK cell assay
How it was run: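 Quantification relied on pAb40/6E10 sandwich ELISA with Europium fluorescence counts, and IC50 was fitted versus concentration.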

[3] = Homo sapiens, HEK293, average IC50, HEK cells
[4] = Homo sapiens, HEK293, average IC50

Sequence of Beta Secretase enzyme (BACE) (P56817 46-501, species assumed): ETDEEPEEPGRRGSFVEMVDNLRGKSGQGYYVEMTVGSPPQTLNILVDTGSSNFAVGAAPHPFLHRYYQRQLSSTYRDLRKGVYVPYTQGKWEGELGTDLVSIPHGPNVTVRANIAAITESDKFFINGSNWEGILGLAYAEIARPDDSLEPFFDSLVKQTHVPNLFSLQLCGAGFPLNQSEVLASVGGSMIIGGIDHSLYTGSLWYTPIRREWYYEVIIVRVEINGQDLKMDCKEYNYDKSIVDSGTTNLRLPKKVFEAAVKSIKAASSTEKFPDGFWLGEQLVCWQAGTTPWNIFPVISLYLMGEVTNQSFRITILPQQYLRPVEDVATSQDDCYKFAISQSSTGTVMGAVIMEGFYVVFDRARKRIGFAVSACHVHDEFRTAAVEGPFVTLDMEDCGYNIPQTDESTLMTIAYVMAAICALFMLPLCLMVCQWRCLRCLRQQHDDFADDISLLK

Compound	pIC50 [1]	pIC50 [2, 3]	pIC50 [2, 4]	pIC50 ([2]; average IC50)
NC1=N[C@]2(CS1)c1cc(-c3cncc(F)c3)ccc1Oc1cnc(C3=CCOCC3)cc12 [Example 618, (5R)-3-(3,6-dihydro-2H-pyran-4-yl)-7-(5-fluoro-3-pyridinyl)spiro[chromeno[2,3-c]pyridine-5,4′-[1,3]thiazol]-2′-amine]	6.43	5.18	–	–
NC1=N[C@@]2(CO1)c1cc(-c3ccccc3)ccc1Oc1cnc(-c3ccccc3)cc12 [Example 142, (5S)-3,7-diphenylspiro[chromeno[2,3-c]pyridine-5,4′-[1,3]oxazol]-2′-amine]	7.80	–	6.27	–
C[Si](C)(C)c1cc2c(nc1F)Oc1ccc(-c3cccnc3F)cc1[C@@]21COC(N)=N1 [Example 146, (5S)-2-fluoro-7-(2-fluoro-3-pyridinyl)-3-(trimethylsilyl)spiro[chromeno[2,3-b]pyridine-5,4′-[1,3]oxazol]-2′-amine]	7.91	–	6.77	–
NC1=N[C@@]2(CO1)c1cc(-c3cccnc3F)ccc1Oc1c2cc(N2CCC(F)(F)CC2)nc1F [Example 698, (5S)-3-(4,4-difluoro-1-piperidinyl)-1-fluoro-7-(2-fluoro-3-pyridinyl)spiro[chromeno[2,3-c]pyridine-5,4′-[1,3]oxazol]-2′-amine]	9.52	8.22	–	–
CC1(COc2cc(F)c3c(c2)[C@]2(COC(N)=N2)c2cc(-c4cccc(C#N)c4)ccc2O3)COC1 [Example 562, 3-((4S)-2-amino-5′-fluoro-7′-((3-methyl-3-oxetanyl)methoxy)spiro[1,3-oxazole-4,9′-xanthen]-2′-yl)benzonitrile]	8.70	8.24	–	–
NC1=N[C@]2(CS1)c1cc(Br)ccc1Oc1cnc(Cl)cc12 [Example 993, (5R)-7-bromo-3-chlorospiro[chromeno[2,3-c]pyridine-5,4′-[1,3]thiazol]-2′-amine]	4.94	–	≤ 5.00	–
CC1(C)CC(c2cnc3c(c2)[C@]2(CSC(N)=N2)c2cc(-c4cccnc4F)ccc2O3)=CCO1 [Example 774, (5S)-3-(2,2-dimethyl-3,6-dihydro-2H-pyran-4-yl)-7-(2-fluoro-3-pyridinyl)spiro[chromeno[2,3-b]pyridine-5,4′-[1,3]thiazol]-2′-amine]	9.22	–	7.77	–
CC1(C)CC(=O)N(c2cc(F)c3c(c2)[C@]2(COC(N)=N2)c2cc(-c4cccnc4)ccc2O3)C1 [Example 798, 1-((4S)-2-amino-4′-fluoro-7′-(3-pyridinyl)spiro[1,3-oxazole-4,9′-xanthen]-2′-yl)-4,4-dimethyl-2-pyrrolidinone]	8.85	–	8.10	–
CC1(COc2cc3c(cc2F)Oc2ccc(-c4cncc(Cl)c4)cc2[C@@]32COC(N)=N2)COC1 [Example 333, (4S)-7′-(5-chloro-3-pyridinyl)-3′-fluoro-2′-((3-methyl-3-oxetanyl)methoxy)spiro[1,3-oxazole-4,9′-xanthen]-2-amine]	8.62	–	7.66	–
COc1cncc(-c2ccc3c(c2)[C@@]2(COC(N)=N2)c2cc(C4CCOCC4)cc(F)c2O3)c1 [Example 937, (4S)-4′-fluoro-7′-(5-methoxy-3-pyridinyl)-2′-(tetrahydro-2H-pyran-4-yl)spiro[1,3-oxazole-4,9′-xanthen]-2-amine]	8.77	7.55	–	–
NC1=N[C@@]2(CO1)c1cc(-c3cccnc3F)ccc1Oc1c2cc(N2CCOCC2)nc1F [Example 892, (5S)-1-fluoro-7-(2-fluoro-3-pyridinyl)-3-(4-morpholinyl)spiro[chromeno[2,3-c]pyridine-5,4′-[1,3]oxazol]-2′-amine]	9.52	8.30	–	–
CC1(C#Cc2cc3c(nc2F)Oc2ccc(-c4cccnc4F)cc2[C@]32COC(N)=N2)COC1 [Example 900, (5R)-2-fluoro-7-(2-fluoro-3-pyridinyl)-3-((3-methyl-3-oxetanyl)ethynyl)spiro[chromeno[2,3-b]pyridine-5,4′-[1,3]oxazol]-2′-amine]	7.32	5.94	–	–
(5R)-7-bromo-3-fluoro-1-methoxyspiro[chromeno[2,3-c]pyridine-5,4′-[1,3]oxazol]-2′-amine, (5S)-7-bromo-3-fluoro-1-methoxyspiro[chromeno[2,3-c]pyridine-5,4′-[1,3]oxazol]-2′-amine [Example 846]	8.85	–	–	7.85
NC1=N[C@@]2(CS1)c1cc(-c3cccnc3)ccc1Oc1c(F)cc(C3=CCCOC3)cc12 [Example 795, (4S)-2′-(5,6-dihydro-2H-pyran-3-yl)-4′-fluoro-7′-(3-pyridinyl)spiro[1,3-thiazole-4,9′-xanthen]-2-amine]	9.30	–	8.00	–

Continued, in another order:

pIC50 [1]	pIC50 [2, 3]	pIC50 [2, 4]	Compound	pIC50 ([2]; average IC50)
8.72	7.21	–	NC1=N[C@@]2(CO1)c1cc(-c3cccnc3F)ccc1Oc1cnc(N3C[C@@H]4C[C@H]3CO4)cc12 [Example 891, (5S)-7-(2-fluoro-3-pyridinyl)-3-((1S,4S)-2-oxa-5-azabicyclo[2.2.1]hept-5-yl)spiro[chromeno[2,3-c]pyridine-5,4′-[1,3]oxazol]-2′-amine]	–
8.68	7.21	–	CC(C)(C)C#Cc1cc2c(cn1)Oc1ccc(-c3cccnc3F)cc1C21CSC(N)=N1 (stereo not shown) [Example 637, 3-(3,3-dimethyl-1-butyn-1-yl)-7-(2-fluoro-3-pyridinyl)spiro[chromeno[2,3-c]pyridine-5,4′-[1,3]thiazol]-2′-amine]	–
6.74	6.15	–	COc1ncc(-c2ccc3c(c2)[C@@]2(COC(N)=N2)c2cc(/C=C/C(C)(C)C)ncc2O3)cn1 [Example 406, (5S)-3-((1E)-3,3-dimethyl-1-buten-1-yl)-7-(2-methoxy-5-pyrimidinyl)spiro[chromeno[2,3-c]pyridine-5,4′-[1,3]oxazol]-2′-amine]	–
7.38	–	6.80	Cc1ccc(-c2ccc3c(c2)[C@@]2(COC(N)=N2)c2cc(C4=CCOCC4)cnc2O3)o1 [Example 324, (5S)-3-(3,6-dihydro-2H-pyran-4-yl)-7-(5-methyl-2-furanyl)spiro[chromeno[2,3-b]pyridine-5,4′-[1,3]oxazol]-2′-amine]	–
8.52	7.50	–	CC(C)(C)/C=C/c1cc2c(cn1)Oc1ccc(-c3ccc(F)nc3)cc1[C@@]21COC(N)=N1 [Example 434, (5S)-3-((1E)-3,3-dimethyl-1-buten-1-yl)-7-(6-fluoro-3-pyridinyl)spiro[chromeno[2,3-c]pyridine-5,4′-[1,3]oxazol]-2′-amine]	–
9.22	7.80	–	CC(C)(C#N)COc1cc(F)c2c(c1)[C@]1(COC(N)=N1)c1cc(-c3cncnc3)c(F)cc1O2 [Example 667, 3-(((4S)-2-amino-4′,6′-difluoro-7′-(5-pyrimidinyl)spiro[1,3-oxazole-4,9′-xanthen]-2′-yl)oxy)-2,2-dimethylpropanenitrile]	–
6.09	6.55	–	COc1cc(F)c2c(c1)[C@]1(CSC(N)=N1)c1cc(Br)ccc1O2 [Example 606, (4S)-7′-bromo-4′-fluoro-2′-methoxyspiro[1,3-thiazole-4,9′-xanthen]-2-amine]	–
8.64	8.36	–	CC1(C)C[C@@H](c2cnc3c(c2)[C@]2(COC(N)=N2)c2cc(-c4cccc(C#N)c4)ccc2O3)CCO1 [Example 472, 3-((5S)-2′-amino-3-((4S)-2,2-dimethyltetrahydro-2H-pyran-4-yl)spiro[chromeno[2,3-b]pyridine-5,4′-[1,3]oxazol]-7-yl)benzonitrile]	–
8.82	7.74	–	N#Cc1cccc(-c2ccc3c(c2)[C@@]2(COC(N)=N2)c2cc(N4CCC(F)(F)CC4)ncc2O3)c1 [Example 424, 3-((5S)-2′-amino-3-(4,4-difluoro-1-piperidinyl)spiro[chromeno[2,3-c]pyridine-5,4′-[1,3]oxazol]-7-yl)benzonitrile]	–
7.84	–	7.01	N#Cc1cccc(-c2ccc3c(c2)[C@@]2(CSC(N)=N2)c2cc(C4CCOCC4)cnc2O3)c1F [Example 790, 3-((5S)-2′-amino-3-(tetrahydro-2H-pyran-4-yl)spiro[chromeno[2,3-b]pyridine-5,4′-[1,3]thiazol]-7-yl)-2-fluorobenzonitrile]	–
8.92	–	7.80	CC1(C)CC(c2cnc3c(c2)[C@]2(COC(N)=N2)c2c(ccc(-c4cncnc4)c2F)O3)=CCO1 [Example 353, (5R)-3-(2,2-dimethyl-3,6-dihydro-2H-pyran-4-yl)-6-fluoro-7-(5-pyrimidinyl)spiro[chromeno[2,3-b]pyridine-5,4′-[1,3]oxazol]-2′-amine]	–
8.12	–	7.50	COCCN(C)c1cc(F)c2c(c1)[C@]1(COC(N)=N1)c1cc(-c3cccnc3F)ccc1O2 [Example 207, (4S)-4′-fluoro-7′-(2-fluoro-3-pyridinyl)-N~2~′-(2-methoxyethyl)-N~2~′-methylspiro[1,3-oxazole-4,9′-xanthene]-2,2′-diamine]	–
7.98	–	7.42	CC1(C)C[C@H](c2cc3c(cn2)Oc2ccc(-c4cccnc4)cc2[C@@]32COC(N)=N2)CCO1 [Example 368, (5S)-3-((4R)-2,2-dimethyltetrahydro-2H-pyran-4-yl)-7-(3-pyridinyl)spiro[chromeno[2,3-c]pyridine-5,4′-[1,3]oxazol]-2′-amine]	–
7.82	–	6.20	NC1=N[C@]2(CO1)c1cc(-c3cccnc3)ccc1Oc1c2cc(C2=CCOCC2)c(F)c1F (single isomer, unassigned) [Example 1006]	–
8.70	–	8.44	CC1(C#Cc2cnc3c(c2)[C@@]2(COC(N)=N2)c2cc(-c4cccnc4F)c(F)cc2O3)COC1 [compound 108]	–

Source: US8883782B2, “Spiro-tetracyclic ring compounds as beta-secretase modulators and methods of use” (Amgen Inc., priority 2010, dated 2014)
